Entries after “also recorded” stand apart in the source; their conditions may differ.
Key:
[1] = system: Streptococcus mutans biofilm; test: Streptococcus mutans monospecies biofilm model, PDT with indocyanine green, viability by serial dilution CFU; type: cell-based, Streptococcus mutans (ATCC 25175); details: 250 μg/ml ICG with 810 nm light
Method: Two separate monospecies biofilm model experiments were performed to study the effect of reoccurring photodynamic therapy on biofilm formation. The Streptococcus mutans biofilm experiments were divided in different classes based on biofilm age and the therapy given.
The one-time PDT treatment was performed for 1 day, 2 days and 4 days old biofilms. […] The viability of the bacteria was assessed by serial dilution CFU method which was performed after the last photodynamic therapy treatment.
Streptococcus mutans (ATCC 25175) bacteria was grown over 18 h in growth chamber (36° C., 5% CO2) in BHI-broth (Bio-Rad 3564014). The resulting bacteria suspension was diluted with 0.9% NaCl suspension to optical density of 0.46.
Biofilm was grown on bottom of well plate by adding 100 ul diluted Streptococcus mutans suspension in each well with 100 μl of BHI-broth growth medium. The bacteria plate was incubated in growth chamber (36 Celsius, 5% CO2) and BHI-broth medium changed daily.
Before the light exposure, the growth medium was replaced with indocyanine green suspension which was let to incubate in dark in room temperature for 10 minutes. […] The treatment time was calculated from desired light amount and known intensity.
The light exposure was performed by placing the well plate under known LED light source. The given light intensity was analyzed with Thorlabs PM100D and S121C sensor head. […]

[2] = system: Streptococcus mutans biofilm; test: Potentiation of chlorhexidine with dual wavelength PDT; type: cell-based; details: versus reference and treatment with only one wavelength; FIG. 3
Excerpt: Treatment can be combined with use of antibiotics and disinfectants for synergist antipathogen effect. For example, the use phototherapy with chlorhexidine to target biofilms is new to oral disinfection. The results of dual wavelength photodynamic therapy with chlorhexidine against Streptococcus mutans biofilm shown in appendix III are completely new. […] The effectivity is based on photon and anionic photosensitizer ability to penetrate deeper into biofilm and provide efficient bacteria killing inside the biofilm as well as on the surface. The chlorhexidine effect is mostly present only on the surface of the biofilm. High energy photons reduce the biofilm EPS matrix formation that further increases the chlorhexidine effectivity in subsequent treatments. In a second series of tests, potentiation of chlorhexidine with dual wavelength PDT was evaluated.

[3] = system: monospecies biofilm of Streptococcus sobrinus; details: monospecies biofilm vs planktonic form; cited from earlier work

Compound | effect of PDT treatment on biofilm (CFU) ([1]; single wavelength, 4 days old biofilm treated every day) | effect of PDT treatment on biofilm (CFU) ([1]; treatment given once to 1, 2 and 4 days old biofilms) | antimicrobial effect of chlorhexidine combined with multi (dual) wavelength PDT [2] | greater concentration needed to kill biofilm than planktonic counterpart [3] [time]
CC1(C)C(/C=C/C=C/C=C/C=C2\N(CCCCS(=O)(=O)O)c3ccc4ccccc4c3C2(C)C)=[N+](CCCCS(=O)(=O)[O-])c2ccc3ccccc3c21 [ICG, Indocyanine Green] | poor treatment effect | strong effect |  | 
[H]/N=C(\N/C(=N/[H])NCCCCCCNC(=N)NC(=N)Nc1ccc(Cl)cc1)Nc1ccc(Cl)cc1 [chlorhexidine] |  |  | increased substantially; also recorded: much stronger effect | 100
amine fluoride |  |  |  | 100

— patent publication US20220167853A1, “Method for plaque detection” (Koite Health Oy, priority 2019, published 2022)
